Biological target: T1, β-secretase (BACE) (Homo sapiens, UniProt P56817)
T1 construct: purchased Panvera
Assay: BACE FS1 % Inhibition Assay
Format: biochemical
Summary of the method: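 Percent inhibition per compound concentration was referenced to vehicle-treated enzyme and no-enzyme wells. Enzyme at a 4 μg/mL working stock plus compound was mixed for 20 min at room temperature before the FS1 substrate (300 μg/mL working stock) was added for a 1 h room-temperature reaction.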

T1 sequence (P56817 46-501): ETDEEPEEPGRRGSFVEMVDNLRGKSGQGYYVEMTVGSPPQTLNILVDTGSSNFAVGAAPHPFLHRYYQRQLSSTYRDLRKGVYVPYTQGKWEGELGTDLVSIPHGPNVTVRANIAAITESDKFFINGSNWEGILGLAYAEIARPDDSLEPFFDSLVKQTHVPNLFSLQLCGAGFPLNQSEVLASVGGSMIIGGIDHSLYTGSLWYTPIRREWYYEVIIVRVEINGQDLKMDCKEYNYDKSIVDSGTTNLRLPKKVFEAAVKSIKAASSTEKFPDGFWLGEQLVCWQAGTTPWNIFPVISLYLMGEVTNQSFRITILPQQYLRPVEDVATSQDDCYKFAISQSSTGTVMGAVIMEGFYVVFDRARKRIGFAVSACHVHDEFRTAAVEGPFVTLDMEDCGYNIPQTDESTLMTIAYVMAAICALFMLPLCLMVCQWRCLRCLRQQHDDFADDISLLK

Row | Structure (SMILES) | % Inhibition (FS) (0.3 μM test compound) [%] | % Inhibition (FS) (1 μM test compound) [%] | % Inhibition (FS) (3 μM test compound) [%] | % Inhibition (FS) (1 μM test compound, 1 µM) [%] | % Inhibition (FS) (3 μM test compound, 3 µM) [%]
1 | CN(C(=O)CCC(C1CCOCC1)N1Cc2cc(Oc3ccccc3)ccc2N=C1N)C1CCCCC1 (stereo not drawn) [Compound 619] | 119 | 118 | 125 |  | 
2 | COc1ccccc1-c1cc2c(cc1F)CN(CCC(=O)NC1C3CC4CC(C3)CC1C4)C(N)=N2 (stereo not drawn) [Compound 620] | <30 | <30 | 37 |  | 
3 | NC1=Nc2ccc(-c3ccc(F)cc3)cc2CN1CCNC(=O)C1CCCCC1 [Compound 623] | <30 |  |  | <30 | 82
4 | NC1=Nc2ccc(-c3ccc(F)cc3)cc2CN1CCNC(=O)C1CCCCC1 [Compound 624] | <30 |  |  | 38 | 78
5 | NC1=Nc2ccc(-c3ccc(Cl)cc3)cc2CN1CCNC(=O)C1CCCCC1 [Compound 626] | <30 | <30 | 56 |  | 
6 | Cc1ccc(-c2ccc3c(c2)CN(CCNC(=O)C2CCCCC2)C(N)=N3)cc1 [Compound 628] | <30 | <30 | 32 |  | 
7 | COc1ccc(C)cc1-c1ccc2c(c1)CN(CCNC(=O)C1CCCCC1)C(N)=N2 [Compound 630] | <30 | <30 | 48 |  | 
8 | COc1ccc(F)cc1-c1ccc2c(c1)CN(CCNC(=O)C1CCCCC1)C(N)=N2 [Compound 631] | <30 | <30 | 48 |  | 
9 | CN(C(=O)CCC(C1CCCCC1)N1Cc2cc(Oc3ccccc3)ccc2N=C1N)C1CCOCC1 (stereo not drawn) [Compound 633] | <30 | 30 | 70 |  | 
10 | NC1=Nc2ccc(Oc3ccccc3)cc2CN1CC(NC(=O)C1CCCCC1)C1CCCCC1 (stereo not drawn) [Compound 637] | <30 | <30 | 73 |  | 
11 | CN(C(=O)CCC(C1CCCCC1)N1Cc2cc(Oc3ccccc3)ccc2N=C1N)C1CCC(O)CC1 (stereo not drawn) [Compound 639] | <30 | <30 | 48 |  | 
12 | NC1=Nc2ccc(Oc3ccccc3)cc2CN1Cc1ocnc1C(=O)NC1CCCCC1 [Compound 640] | <30 | <30 | <30 |  | 
13 | CN(C(=O)c1ncoc1CN1Cc2cc(Oc3ccccc3)ccc2N=C1N)C1CCCCC1 [Compound 641] | <30 | <30 | 48 |  | 
14 | NC1=Nc2ccc(-c3ccccc3F)cc2CN1CCNC(=O)C1CCC1 [Compound 642] | 37 | 63 | 96 |  | 
15 | NC1=Nc2ccc(-c3ccccc3F)cc2CN1CCNC(=O)C1CCCC1 [Compound 643] | 74 | 92 | 110 |  | 
16 | NC1=Nc2ccc(-c3ccccc3F)cc2CN1CCNC(=O)C12CC3CC(CC(C3)C1)C2 [Compound 644] | 46 | 72 | 104 |  | 
17 | CCCC(=O)NCCN1Cc2cc(-c3ccccc3F)ccc2N=C1N [Compound 645] | 67 | 57 | 91 |  | 
18 | CC(C)(C)C(=O)NCCN1Cc2cc(-c3ccccc3F)ccc2N=C1N [Compound 646] | 52 | 72 | 97 |  | 
19 | CCCCC(CC)C(=O)NCCN1Cc2cc(-c3ccccc3F)ccc2N=C1N (stereo not drawn) [Compound 648] | 39 | 74 | 104 |  | 
20 | NC1=Nc2ccc(-c3ccccc3Cl)cc2CN1CCNC(=O)C1CCC1 [Compound 649] | 34 | 65 | 95 |  | 
21 | NC1=Nc2ccc(-c3ccccc3Cl)cc2CN1CCNC(=O)C1CCCC1 [Compound 650] | 72 | 94 | 112 |  | 
22 | NC1=Nc2ccc(-c3ccccc3Cl)cc2CN1CCNC(=O)C12CC3CC(CC(C3)C1)C2 [Compound 651] | <30 | 51 | 96 |  | 
23 | CCCC(=O)NCCN1Cc2cc(-c3ccccc3Cl)ccc2N=C1N [Compound 652] | 31 | 63 | 91 |  | 
24 | CC(C)(C)C(=O)NCCN1Cc2cc(-c3ccccc3Cl)ccc2N=C1N [Compound 653] | 46 | 82 | 101 |  | 
25 | CCCCC(CC)C(=O)NCCN1Cc2cc(-c3ccccc3Cl)ccc2N=C1N (stereo not drawn) [Compound 655] | 45 | 79 | 104 |  | 
26 | Cc1ccccc1-c1ccc2c(c1)CN(CCNC(=O)C1CCC1)C(N)=N2 [Compound 656] | 56 | 87 | 104 |  | 
